Ends that are not written are not given here.
What was measured:
NCI-H460 cells [1] = test: viability assay of CLIP cyclised peptides on NCI-H460 cells (Example 3, Table 2); type: cell-based, human; details: with and without Nanocin-PRO
Protocol: (§1) The following protocol was used: • 1) NCI-H460 cells were grown in Ham's F12 media supplemented with 10% FBS. • 2) Cells were harvested and seeded into 96-well plates at 500 cells per well. • 3) Peptides were diluted 1:2 from DMSO stock solutions to generate a 9-point dose range from a top concentration of 300 μM. Final DMSO concentration was constant at 1% (v/v). • 4) In line with the supplied Nanocin-PRO protocol, diluted peptides were incubated with Nanocin-PRO in media for 20 minutes prior to addition to cells. Nanocin-PRO was used at a final assay concentration of 0.2 μl per well. • 5) Cells were grown in the presence of peptide for 96 hours at 37° C., 5% CO2 in a humidified atmosphere. • 6) After 96 h, Alamar blue 10% (v/v) was added, incubated for a further 4 h and fluorescent product detected using a BMG FLUOstar plate reader. • 7) Media only background readings were subtracted before data was analysed using a 4-parameter logistic equation in GraphPad Prism.
Viability assays of the CLIP cyclised peptides were performed to examine the effect of four HILRa clipped peptides on the viability of NCIH460 cells (up to three isomers for each of the peptides). […] Results for HILRa 16A, 16B, 16C and HILRa 17A, 17B and 17C are depicted in FIG. 2.
Assays were performed in the presence and absence of the peptide transfection reagent Nanocin-PRO.

NCI-H460 cells [2] = test: NCI-H460 cell viability assay, glycosylated versus unglycosylated peptide (Example 4); type: cell-based, human; details: 0.2 μl Nanocin-Pro per well
Protocol: The inventor next undertook testing to determine whether the cytotoxicity of the peptides of the invention could be increased by glycosylation of the peptides. NCI-H460 cell viability assays were performed to compare the effect of a glycosylated clipped peptide (HILRa-Glu-01) versus the un-glycosylated version (HILRa-CL-17, HILRa-CL-17 was used in this study as a 1:1:1 mix of the three isomers HILRa-CL-17A, HILRa-CL-17B and HILRa-CL-17C).
Assays were performed in the presence and absence of the peptide transfection agent Nanocin-Pro.
as §1, with “HILRa peptides” for “Peptides”, “[…] Nanocin-Pro” for “Final DMSO concentration was constant at 1% (v/v). • 4) In line with the supplied Nanocin-PRO protocol, diluted peptides were incubated with Nanocin-PRO in media for 20 minutes prior to addition to cells. Nanocin-PRO”

[3] = tested on: RT112 bladder cancer cell line; details: WO 2016/020437; cited from earlier work
MRC-5 cells = details: in vitro; WO 2016/020437; cited from earlier work

Substance | cytotoxic activity against NCIH460 cells (in words) (NCI-H460 cells [1]) | cytotoxic activity against NCIH460 cells (in words) (NCI-H460 cells [1]; listed as HILRa-CL17) | activity in the presence of Nanocin-PRO compared to its absence (NCI-H460 cells [2]) | IC50 [3] | lethality in MRC-5 cells (MRC-5 cells)
Ac-C[Dac]R[Sar][Nap]R[Nap]C-NH2 [HILRa-CL-17] | greater potency than HILRa-CL-15 | showed activity | much higher activity | – | –
PRGPRPVWWRRWWRRWW [HILR-PRO-25] | – | – | – | 10 µM | without lethality

Source: US12570697B2, “Cyclic peptide useful in the treatment of cancer” (Syntherix Limited, priority 2019, dated 2026)
